Series [1] is described as follows: Tolerability in CD1 mice: organ weight (Example 17). The settings on record: 50 mg/kg s.c. twice a week, 2 weeks, vs PBS control, normalized to body weight. Type of series: in vivo. The procedure:
Three days after the last dose was administered to all groups, the mice were sacrificed.

Series [2] in a line: Cynomolgus monkeys: body and organ weights (Example 29). It counts as in vivo. The procedure: Groups, each consisting of two male and three female monkeys, were injected subcutaneously with ISIS 416838, ISIS 416850, ISIS 416858, ISIS 416864, or ISIS 417002 in escalating doses. Antisense oligonucleotide was administered to the monkeys at 5 mg/kg three times per a week for week 1; 5 mg/kg twice per week for weeks 2 and 3; 10 mg/kg three times per week for week 4; 10 mg/kg twice per week for weeks 5 and 6; 25 mg/kg three times per week for week 7; and 25 mg/kg twice per week for weeks 8, 9, 10, 11, and 12. One control group, consisting of two male and three female monkeys, was injected subcutaneously with PBS according to the same dosing regimen. An additional experimental group, consisting of two male and three female monkeys, was injected subcutaneously with ISIS 416850 in a chronic, lower dose regimen. Antisense oligonucleotide was administered to the monkeys at 5 mg/kg three times per week for week 1; 5 mg/kg twice per week for week 2 and 3; 10 mg/kg three times per week for week 4; and 10 mg/kg twice per week for weeks 5 to 12. Body weights were measured weekly. Blood samples were collected 14 days and 5 days before the start of treatment and subsequently once per week for Factor XI protein activity analysis in plasma and measurement of various hematologic factors. On day 85, the monkeys were euthanized by exsanguination while under deep anesthesia, and organs harvested for further analysis.
Body weights were taken once weekly throughout the dosing regimen. […] Organ weights were taken after the animals were euthanized and livers, kidneys and spleens were harvested and weighed. […] The ISIS oligonucleotide, ISIS 416850, given with the chronic dose regimen is distinguished from the other oligonucleotides with an asterisk (*).

Series [3] concerns murine Factor XI mRNA. Nature of the series: Colitis Study B: Factor XI mRNA in the liver. As to conditions: DSS-induced colitis, day 7, 20 mg/kg s.c. twice a week for 3 weeks, percent change compared to the PBS control. It counts as in vivo, Swiss Webb mice. How it is done: In a first group of 8 Swiss Webb mice, 20 mg/kg of ISIS 404071 was injected subcutaneously twice a week for 3 weeks. In a second group of 8 Swiss Webb mice, 20 mg/kg of ISIS 404057 was subcutaneously injected twice a week for 3 weeks. In a third control group of 8 Swiss Webb mice, 20 mg/kg of ISISI 421208 was injected subcutaneously twice a week for 3 weeks. Two control groups of 8 mice each were injected with PBS twice a week for 3 weeks. After the oligonucleotide treatment, 4% DSS in water was administered ad libitum for 6 days to all the experimental groups and one PBS control group.
Mice in all groups were weighed at day 0 and daily after administration of DSS. Mice were sacrificed at the end of the study on day 7 after DSS was administered, their livers and colons were harvested for RNA analysis, and their body weights and colon lengths were measured.
RT-PCR analysis of Factor XI mRNA was performed. As presented in Table 27 and FIG. 10, antisense oligonucleotides targeting Factor XI achieved statistically significant dose-dependent reduction of murine Factor XI over the PBS control in the liver. All the measurements are normalized to cyclophilin.
All the results in Table 27 are expressed as percent change compared to the PBS control.

Series [4] has as its system OVA/alum-induced asthma model. The experiment in a line: OVA-induced asthma model: mucus production (Example 13). It counts as in vivo, BALB/c mice. How it is done: The mice were divided into four treatment groups of 5 mice each. One group received subcutaneous injections of ISIS 404071 at a dose of 50 mg/kg twice a week for 4 weeks. One group of mice received subcutaneous injections of control oligonucleotide, ISIS 421208, which is a mismatch oligonucleotide sequence of ISIS 404071, at a dose of 50 mg/kg twice a week for 4 weeks. Two groups of mice received subcutaneous injections of PBS twice a week for 4 weeks. One PBS group remained untreated and served as the control group. The second PBS group and both the oligonucleotide treated groups were injected with OVA/alum on days 0 and 14 and nebulized with OVA in PBS on days 24, 25, and 26. The first OVA application served to sensitize the mice against OVA while the second was a challenge application to provoke an asthmatic reaction. Two days following the final dose, the mice were euthanized, bronchial lavage (BAL) was collected and analyses done.
Lung sections were stained with periodic acid […] (PAS) base stain that stains mucus, which is produced during asthma attacks (Rogers, D. F. Curr. Opin Pharmacol. 2004. 4: 241-250). The number of airways containing mucus as a percentage of the total airways in the lungs was evaluated.

In series [5] the test system is thrombin-antithrombin (TAT) complexes. The experiment in a line: Colitis Study D: TAT levels in colon. Type of series: in vivo, Swiss Webb mice. As to conditions: for TAT levels in colon: DSS-treated mice. How it is done:
In a first group of 8 Swiss Webb mice, 10 mg/kg of ISIS 404071 was injected subcutaneously twice a week for 3 weeks. In a second group of 8 Swiss Webb mice, 20 mg/kg of ISIS 404057 was subcutaneously injected twice a week for 3 weeks. In a third control group of 8 Swiss Webb mice, 40 mg/kg of ISISI 404057 was injected subcutaneously twice a week for 3 weeks. Two control groups of 8 mice each were injected with PBS twice a week for 3 weeks. After the oligonucleotide treatment, 4% DSS in water was administered ad libitum for 7 days to all the experimental groups and one PBS control group.
Mice with dextran sodium sulfate (DSS)-induced colitis have elevated level of thrombin-antithrombin (TAT) complexes in blood (Anthoni, C. et al., J. Exp. Med. 204: 1595-1601, 2007) that is also observed in patients with ulcerative colitis (Kume, K. et al., Intern Med. 2007. 46: 1323-9). The effect of antisense inhibition of Factor XI on TAT levels in the colon was evaluated (Thrombi-Anti-Thrombin III complex, Siemens Healthcare Diagnostics, Deerfield, Ill.) and the results are presented in Table 30.

In the oligonucleotide strings, read from the 5' end, every base follows the letter of its sugar. An asterisk marks phosphorothioate; unmarked linkages are phosphodiester. Other units and linkages are bracketed, terminal groups are in braces. A string of capitals states the bases alone. e = 2'-O-(2-methoxyethyl) (MOE); [5mC] = 5-methylcytosine; d = 2'-deoxy (DNA)

Take “416850 (antisense TGCACAGTTTCTGGCAGGCC; 5-10-5 gapmer, wing sugar chemistry not given here, further chemistry not given here) [compound 416850]”: the “Percent change in kidney weight” value in series [1] is recorded as −10%.

As for “ISIS 416850: gapmer of Table 8 (antisense eT*eG*e[5mC]*eA*e[5mC]*dA*dG*dT*dT*dT*d[5mC]*dT*dG*dG*d[5mC]*eA*eG*eG*e[5mC]*e[5mC])”, the Body weight was 2665 g in series [2] (chronic, lower dose regimen (*) 5 then 10 mg/kg s.c., day 1); 2579 g in series [2] (chronic, lower dose regimen (*) 5 then 10 mg/kg s.c., day 8); 2607 g in series [2] (chronic, lower dose regimen (*) 5 then 10 mg/kg s.c., day 15); 2661 g in series [2] (chronic, lower dose regimen (*) 5 then 10 mg/kg s.c., day 22); 2667 g in series [2] (chronic, lower dose regimen (*) 5 then 10 mg/kg s.c., day 29); 2656 g in series [2] (chronic, lower dose regimen (*) 5 then 10 mg/kg s.c., day 36). The Body weight is 2670 g in series [2] (chronic, lower dose regimen (*) 5 then 10 mg/kg s.c., day 43); 2679 g in series [2] (chronic, lower dose regimen (*) 5 then 10 mg/kg s.c., day 50); 2572 g in series [2] (escalating doses 5, 10, 25 mg/kg s.c., day 1); 2430 g in series [2] (escalating doses 5, 10, 25 mg/kg s.c., day 8); 2474 g in series [2] (escalating doses 5, 10, 25 mg/kg s.c., day 15); 2514 g in series [2] (escalating doses 5, 10, 25 mg/kg s.c., day 22). In addition, the Body weight is 2515 g in series [2] (escalating doses 5, 10, 25 mg/kg s.c., day 29); 2545 g in series [2] (escalating doses 5, 10, 25 mg/kg s.c., day 36); 2544 g in series [2] (escalating doses 5, 10, 25 mg/kg s.c., day 43); 2613 g in series [2] (escalating doses 5, 10, 25 mg/kg s.c., day 50); 2629 g in series [2] (escalating doses 5, 10, 25 mg/kg s.c., day 57); 2642 g in series [2] (escalating doses 5, 10, 25 mg/kg s.c., day 64). For the same substance, the Body weight in series [2] (escalating doses 5, 10, 25 mg/kg s.c., day 71) amounted to 2769 g; in series [2] (escalating doses 5, 10, 25 mg/kg s.c., day 78) it was 2660 g.

Take “TGGTAATCCACTTTCAGAGG (eT*eG*eG*eT*eA*dA*dT*d[5mC]*d[5mC]*dA*d[5mC]*dT*dT*dT*d[5mC]*eA*eG*eA*eG*eG) [ISIS 404071, 5-10-5 MOE gapmer targeting murine Factor XI, target start site 869]”: in series [3], the “Liver Factor XI mRNA” value was −75%. For the same substance, in series [4], the “mucus production in the lungs (in words)” value is “decreased mucus production in the lungs”. For the same substance, the “Mucus production, % airways containing mucus” value in series [4] (BALB/c mice, 50 mg/kg s.c. twice a week for 4 weeks, PAS stain of lung sections) was 34 % airways. Besides, in series [5] (Colitis Study D), the “TAT levels in the colon (in words)” value is “decreased in a dose-dependent manner”. The figures for the “TAT levels in colon” value in series [5] (10 mpk), in series [5] (20 mpk) and in series [5] (40 mpk) were 1.79 ng/mg protein, 0.65 ng/mg protein and 0.75 ng/mg protein, respectively.

The record behind these values is US20120083522A1, “MODULATION OF INFLAMMATORY RESPONSES BY FACTOR XI” (Isis Pharmaceuitcals, inc., priority 2009, published 2012).
